Source: patent US10034475B2, “Treated biodiesel glycerin” (Auburn University, priority 2007, dated 2018)

Assays:
[1] = system: reniform nematode Rotylenchulus reniformis; assay: Greenhouse pot test, soil drench, reniform nematode population in soil; assay type: in vivo; conditions: 1 Kg infested soil per pot, drench in 100 mls; urea alone 150 mgs/Kg soil; NBG 1-5 mls/kg soil without urea
Procedure: The effect of neutralized bioglycerin (NBG), either in the presence or absence of organic nitrogen, was tested on the growth of cotton plants and parasitic nematodes. Neutralized bioglycerin (NBG) was applied at rates of 0, 1, 2, 3, 4, and 5 mls/kg soil either with or without urea (150 mgs/Kg soil of the compound to achieve about 70 mgs N/Kg soil). Applications were performed by drenching the soil in aqueous solution so that the final application volume per pot was 100 mls (which is equivalent to an acre inch of irrigation). Each pot contained 1 Kg of soil infested with the reniform nematode Rotylenchulus reniformis and there were 7 replications (pots)/treatment. Thus, for example, for the 1 ml NBG application there were 14 pots, 7 of which received each water up to 100 mls containing 1 ml NBG; the other 7 pots received each 1 ml NBG+150 mgs urea mixed in a final volume of 100 mls. The carbon:nitrogen ratios (C/N) of the combined treatments ranged from about 5.6 for the 1 ml NBG treatment to 28 for the 5 mls NBG treatment.

[2] = system: fungi; conditions: greenhouse and field experiments; cited from earlier work
[3] = system: nematodes; conditions: greenhouse and field experiments; cited from earlier work

Row | SMILES | effect on reniform nematode numbers [1] | fungicidal activity [2] | nematocidal activity [3]
1 | NC(N)=O [Urea, urea] | suppressed |  | 
2 | C=CC=O [acrolein, 2-propenal] |  | fungicidal | nematocidal
